This is an account of results in US9284322B2, “Nicotinic receptor compounds” (priority 2010, dated 2016).

Read-outs that look alike come from different tables or passages of the source.

Assay [1] deals with mice. The experiment in a line: animal or person. As to conditions: @ 10 mg/kg, mice, s.c. The assay is classed as in vivo, mouse. As for the experimental part: (§1) Antinociception was assessed by the tail-flick method of F. E. D'Amour and D. L. Smith (J. Pharmacol. Exp. Ther. 1941, 72, 74-79). A control response (2-4 sec) was determined for each mouse before treatment, and a test latency was determined after drug administration. In order to minimize tissue damage, a maximum latency of 10 sec was imposed. Antinociceptive response was calculated as percent maximum possible effect (% MPE), where % MPE=[(test−control)/(10−control)]×100. Groups of eight to twelve animals were used for each dose and for each treatment. […] Eight to twelve mice were treated per dose and a minimum of four doses were performed for dose-response curve determination.

Assay [2] relates to mice. Description: animal or person. The settings on record: @ 10 mg/kg, mice, s.c. The assay is classed as in vivo, mouse. As for the experimental part:
Mice were placed into a 10 cm wide glass cylinder on a hot plate (Thermojust Apparatus) maintained at 55.0° C. Two control latencies at least […] apart were determined for each mouse. The normal latency (reaction time) was 8 to 12 sec. Antinociceptive response was calculated as percent maximum possible effect (% MPE), where % MPE=[(test−control)/40−control)×100]. The reaction time was scored when the animal jumped or licked its paws.
The source holds these as a separate data set.

The subject of assay [3] is mice. Description: animal or person. The settings on record: Mus musculus, sc, 0.5 h; mice, s.c., rectal temperature 30 min after injection; read-out: ED50 Hypothermia. The assay is classed as in vivo, mouse. As for the experimental part:
Rectal temperature was measured by a thermistor probe (inserted 24 mm) and digital thermometer (Yellow Springs Instrument Co., Yellow Springs, Ohio). […] The difference in rectal temperature before and after treatment was calculated for each mouse. The ambient temperature of the laboratory varied from 21-24° C. from day to day.

In assay [4] the test system is mice. Description: animal or person. The assay is classed as in vivo, mouse. The settings on record: Mus musculus, sc; mice, s.c., 5 min after administration, recorded for 10 min; read-out: ED50 Spontaneous Activity. As for the experimental part:
(§2) Interruptions of the photocell beams (two banks of eight cells each) were then recorded for the next 10 min. Data were expressed as number of photocell interruptions.

The subject of assay [5] is mice. The assay is classed as in vivo, mouse. The protocol: as §1
(§3) Table 6 provides data for a number of compounds of the invention that were tested according to the assays described above.

Assay [6] has as its system mice. The assay is classed as in vivo, mouse. As to conditions: antagonist test. As for the experimental part:
(§4) Mice were placed into a 10 cm wide glass cylinder on a hot plate (Thermojust Apparatus) maintained at 55.0° C. Two control latencies at least […] apart were determined for each mouse. […] Antinociceptive response was calculated as percent maximum possible effect (% MPE), where % MPE=[(test−control)/40−control)×100]. The reaction time was scored when the animal jumped or licked its paws.
as §3

For assay [7], the system named is mice. The experiment in a line: Functional agonist tests (nAChR animal assays). The settings on record: mouse, in vivo. The protocol:
as §1, §4, §2
Rectal temperature was measured by a thermistor probe (inserted 24 mm) and digital thermometer (Yellow Springs Instrument Co., Yellow Springs, Ohio). […]

In the case of `c1cnc2cc3c(cc2n1)[C@@H]1CNC[C@H]3C1` [varenicline, reference compound], in the assay with mice [1], the “Tail Flick, % effect at dose (ED50 column)” value was found to be 11% @ 10. In addition, the “Hot Plate, % effect at dose (ED50 column)” value with mice [2] was found to be 10% @ 10. Further, the ED50 with mice [3] came out at 2.8 mg/kg; with mice [4], 2.1 mg/kg. In addition, the “AD50 Tail Flick” value in the assay with mice [5] (mice, antagonist test) was found to be 0.0002 mg/kg. The “functional antagonism in the tail-flick test (in words)” value with mice [5] (mouse, in vivo) is “functional antagonists”. Moreover, in the assay on mice [6], the “AD50 Hot Plate” value was determined as 0.47 mg/kg. Besides, in the assay with mice [7], the “activity in one or more of the functional agonist tests (in words)” value is listed as “partial agonists”.
